In patent publication US20250215039A1, “NUCLEOSIDES FOR TREATING CANCER” (PRIMEFOUR THERAPEUTICS, INC., priority 2022, published 2025):
Where two headings read alike, the source gives them in different places.

Legend:
cancer cell lines = assay: Cancer cell proliferation activity (CellTiterGlo, 72 h); format: cell-based; conditions: for IC50: 72 h, read-out: IC50 cell proliferation
In short: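 Readout is CellTiterGlo luminescence after 72 h compound exposure (0.1% DMSO final), started one day post-seeding, at 37 °C.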

[1] = target: human cytidine deaminase (CDA) (Homo sapiens, UniProt P32320); assay: Metabolism by human cytidine deaminase (CDA), substrate absorbance at 290 nm
human cytidine deaminase (CDA), sequence (P32320 whole entry): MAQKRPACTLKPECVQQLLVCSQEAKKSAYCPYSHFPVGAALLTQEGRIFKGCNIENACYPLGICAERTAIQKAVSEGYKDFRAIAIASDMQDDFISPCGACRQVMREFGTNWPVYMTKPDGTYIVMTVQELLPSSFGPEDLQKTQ
Description: Transfer 7.2 μl of each of the substrate DMSO stock in step 2 into a 500 μl 96-Well V-bottom Microplate, clear SBS footprint, cat #P-96-450V-C
Add 352.8 μl assay buffer to the wells
For deaminated product compounds mix 4 μl product with 196 μl assay buffer
This was incubated at 37° C. for 1 h. 200 μl of this mixture was transferred into the assay plate to serve as the product control.
Product+buffer: mix 80 ul of the 2.5× intermediate product stocks (from step 3) with 120 ul assay buffer into product control (no enzyme) wells
Incubate the plate alongside the 20 nM CDA enzyme intermediate stock at 37° C. to temperature equilibrate reagents
Add 120 μl of the 20 nM enzyme mix into the Substrate+CDA wells and start reading at 290 nm every 30 s for about 60 min
50 and 200 uM substrate and product
In 100 mM Tris, pH 7.5, 100 mM KCl, 0.8% carryover DMSO
5 min incubation at 37° C.
Absorbance at 290 nm every 30 s at 37° C. for 1 h using FlexStation 3
Convert A290 to concentration of substrate remaining at time t after enzyme addition:
[formula] • where: • St=absorbance reading of: substrate+CDA wells at time t • So=Average absorbance reading of: substrate+buffer wells • Po=Average absorbance reading of: product+buffer wells • [S]t=initial substrate concentration • Use GraphPad to plot [substrate] against time to calculate initial velocity or slope (μMs^−1) i.e. the linear range of each curve • Express rate in s^−1 by dividing initial velocity by the total enzyme concentration.
Plot rate against [substrate] and fit data to standard Michaelis Menten equation to obtain kcat and KM parameters.

IC50 (cancer cell lines; 5637 (bladder)): 4 nM
IC50 (cancer cell lines; CLS439 (bladder)): > 50000 nM
IC50 (cancer cell lines; HS729 (muscle)): > 50000 nM
IC50 (cancer cell lines; J82 (bladder)): 216 nM
IC50 (cancer cell lines; JAR (placenta)): > 50000 nM
IC50 (cancer cell lines; MT3 (breast)): 16 nM
IC50 (cancer cell lines; PANCI (pancreas)): > 50000 nM
IC50 (cancer cell lines; PC3 (prostate)): > 50000 nM
IC50 (cancer cell lines; RD (muscle)): 66 nM
IC50 (cancer cell lines; T24 (bladder)): 98 nM
IC50 (cancer cell lines; Homo sapiens, 22Rv1, 72 h, 22RV1 (prostate)): 84 nM
IC50 (cancer cell lines; Homo sapiens, 786-0, 72 h, 786O (kidney)): > 50000 nM
IC50 (cancer cell lines; Homo sapiens, A204, 72 h, A204 (muscle)): 716 nM
IC50 (cancer cell lines; Homo sapiens, A549, 72 h, A549 (lung)): 75 nM
IC50 (cancer cell lines; Homo sapiens, A673, 72 h, A673 (bone)): 110 nM
IC50 (cancer cell lines; Homo sapiens, A2780, 72 h, A2780 (ovary)): 213 nM
IC50 (cancer cell lines; Homo sapiens, A-375, 72 h, A375 (skin)): 183 nM
IC50 (cancer cell lines; Homo sapiens, A-431, 72 h, A431 (skin)): 2 nM
IC50 (cancer cell lines; Homo sapiens, ACHN, ACHN (kidney)): 12 nM
IC50 (cancer cell lines; Homo sapiens, ASPC1, 72 h, ASPC1 (pancreas)): 11 nM
IC50 (cancer cell lines; Homo sapiens, BT-20, 72 h, BT20 (breast)): > 50000 nM
IC50 (cancer cell lines; Homo sapiens, BXPC-3, 72 h, BXPC3 (pancreas)): 0.4 nM
IC50 (cancer cell lines; Homo sapiens, C-33-A, C33A (endometrial)): 47 nM
IC50 (cancer cell lines; Homo sapiens, CAKI-1, 72 h, CAKI1 (kidney)): > 50000 nM
IC50 (cancer cell lines; Homo sapiens, COLO 205, 72 h, COLO205 (colon)): 18 nM
IC50 (cancer cell lines; Homo sapiens, COLO-678, 72 h, COLO678 (colon)): > 50000 nM
IC50 (cancer cell lines; Homo sapiens, Ca-Ski, CASKI (endometrial)): > 50000 nM
IC50 (cancer cell lines; Homo sapiens, Caco-2, 72 h, CACO2 (colon)): > 50000 nM
IC50 (cancer cell lines; Homo sapiens, Calu-6, 72 h, CALU6 (lung)): 76 nM
IC50 (cancer cell lines; Homo sapiens, DLD-1, 72 h, DLD1 (colon)): 8970 nM
IC50 (cancer cell lines; Homo sapiens, DU-145, 72 h, DU145 (prostate)): 425 nM
IC50 (cancer cell lines; Homo sapiens, EFO-21, 72 h, EFO21 (ovary)): > 50000 nM
IC50 (cancer cell lines; Homo sapiens, EJ-28, 72 h, EJ28 (bladder)): 66 nM
IC50 (cancer cell lines; Homo sapiens, Granta-519, 72 h, GRANTA-519 (hematological)): 10 nM
IC50 (cancer cell lines; Homo sapiens, HCT-15, 72 h, HCT15 (colon)): 1380 nM
IC50 (cancer cell lines; Homo sapiens, HCT-116, 72 h, HCT116 (colon)): 1110 nM
IC50 (cancer cell lines; Homo sapiens, HEK293, 72 h, HEK293 (kidney)): > 50000 nM
IC50 (cancer cell lines; Homo sapiens, HL-60, 72 h, HL-60 (hematological)): 247 nM
IC50 (cancer cell lines; Homo sapiens, HT-29, 72 h, HT29 (colon)): 60 nM
IC50 (cancer cell lines; Homo sapiens, HT-1080, 72 h, HT1080 (connective tissue)): 46 nM
IC50 (cancer cell lines; Homo sapiens, HeLa, HELA (endometrial)): > 50000 nM
IC50 (cancer cell lines; Homo sapiens, HepG2, 72 h, HEPG2 (liver)): 89 nM
IC50 (cancer cell lines; Homo sapiens, Hs-578T, HS578T (breast)): > 50000 nM
IC50 (cancer cell lines; Homo sapiens, IGROV-1, 72 h, IGROV1 (ovary)): 1590 nM
IC50 (cancer cell lines; Homo sapiens, IMR-90, 72 h, IMR90 (lung)): > 50000 nM
IC50 (cancer cell lines; Homo sapiens, JEG-3, 72 h, JEG3 (placenta)): 37 nM
IC50 (cancer cell lines; Homo sapiens, JIMT-1, 72 h, JIMT1 (breast)): > 50000 nM
IC50 (cancer cell lines; Homo sapiens, K562, 72 h, K-562 (hematological)): > 50000 nM
IC50 (cancer cell lines; Homo sapiens, Kasumi 1, 72 h, KASUMI-1 (hematological)): 76 nM
IC50 (cancer cell lines; Homo sapiens, L-363, 72 h, L-363 (hematological)): > 50000 nM
IC50 (cancer cell lines; Homo sapiens, LoVo, LOVO (colon)): 6 nM
IC50 (cancer cell lines; Homo sapiens, MCF7, 72 h, MCF7 (breast)): 181 nM
IC50 (cancer cell lines; Homo sapiens, MDA-MB-231, 72 h, MDAMB231 (breast)): > 50000 nM
IC50 (cancer cell lines; Homo sapiens, MDA-MB-435, 72 h, MDAMB435 (skin)): 924 nM
IC50 (cancer cell lines; Homo sapiens, MDA-MB-436, 72 h, MDAMB436 (breast)): 41 nM
IC50 (cancer cell lines; Homo sapiens, MDA-MB-468, 72 h, MDAMB468 (breast)): > 50000 nM
IC50 (cancer cell lines; Homo sapiens, MG-63, 72 h, MG63 (bone)): 361 nM
IC50 (cancer cell lines; Homo sapiens, MHH-ES-1, 72 h, MHHES1 (bone)): 2560 nM
IC50 (cancer cell lines; Homo sapiens, MIA PaCa-2, 72 h, MIAPACA2 (pancreas)): 904 nM
IC50 (cancer cell lines; Homo sapiens, MINO, MINO (hematological)): 2 nM
IC50 (cancer cell lines; Homo sapiens, MV4-11, 72 h, MV4-11 (hematological)): 44 nM
IC50 (cancer cell lines; Homo sapiens, NCI-H23, 72 h, NCI-H23 (lung)): 334 nM
IC50 (cancer cell lines; Homo sapiens, NCI-H82, 72 h, NCIH82 (lung)): 87 nM
IC50 (cancer cell lines; Homo sapiens, NCI-H292, 72 h, NCIH292 (lung)): 114 nM
IC50 (cancer cell lines; Homo sapiens, NCI-H460, 72 h, NCIH460 (lung)): 61 nM
IC50 (cancer cell lines; Homo sapiens, OVCAR-3, 72 h, OVCAR3 (ovary)): > 50000 nM
IC50 (cancer cell lines; Homo sapiens, OVCAR-4, 72 h, OVCAR4 (ovary)): > 50000 nM
IC50 (cancer cell lines; Homo sapiens, PLC-PRF-5, 72 h, PLCPRF5 (liver)): > 50000 nM
IC50 (cancer cell lines; Homo sapiens, Panc1005, 72 h, PANC1005 (pancreas)): > 50000 nM
IC50 (cancer cell lines; Homo sapiens, Ramos, RAMOS (hematological)): 292 nM
IC50 (cancer cell lines; Homo sapiens, SAOS-2, 72 h, SAOS2 (bone)): 6 nM
IC50 (cancer cell lines; Homo sapiens, SF-268, 72 h, SF268 (brain)): 187 nM
IC50 (cancer cell lines; Homo sapiens, SF-295, 72 h, SF295 (brain)): > 50000 nM
IC50 (cancer cell lines; Homo sapiens, SK-BR-3, 72 h, SKBR3 (breast)): 5 nM
IC50 (cancer cell lines; Homo sapiens, SK-HEP1, 72 h, SKHEP1 (liver)): 1320 nM
IC50 (cancer cell lines; Homo sapiens, SK-LMS-1, 72 h, SKLMS1 (uterus)): 298 nM
IC50 (cancer cell lines; Homo sapiens, SK-MEL-5, 72 h, SKMEL5 (skin; SKMELS [sic] in Table 9E)): > 50000 nM
IC50 (cancer cell lines; Homo sapiens, SK-MEL-28, 72 h, SKMEL28 (skin)): > 50000 nM
IC50 (cancer cell lines; Homo sapiens, SK-N-AS, SKNAS (brain)): > 50000 nM
IC50 (cancer cell lines; Homo sapiens, SK-N-SH, SKNSH (brain)): > 50000 nM
IC50 (cancer cell lines; Homo sapiens, SK-OV-3, 72 h, SKOV3 (ovary)): 71 nM
IC50 (cancer cell lines; Homo sapiens, SNB-75, 72 h, SNB75 (brain)): > 50000 nM
IC50 (cancer cell lines; Homo sapiens, SU-DHL10, 72 h, SU-DHL-10 (hematological)): 1160 nM
IC50 (cancer cell lines; Homo sapiens, SU-DHL-6, 72 h, SU-DHL-6 (hematological)): 143 nM
IC50 (cancer cell lines; Homo sapiens, SW-620, 72 h, SW620 (colon)): 82 nM
IC50 (cancer cell lines; Homo sapiens, TE-671, 72 h, TE671 (muscle)): 82 nM
IC50 (cancer cell lines; Homo sapiens, THP-1, 72 h, THP-1 (hematological)): 131 nM
IC50 (cancer cell lines; Homo sapiens, U2OS, U20S (bone; U2OS in Table 9E)): > 50000 nM
IC50 (cancer cell lines; Homo sapiens, U-87 MG, U87MG (brain)): > 50000 nM
IC50 (cancer cell lines; Homo sapiens, UMUC3, 72 h, UMUC3 (bladder)): 228 nM
IC50 (cancer cell lines; Homo sapiens, UO-31, 72 h, UO31 (kidney)): > 50000 nM
IC50 (cancer cell lines; Homo sapiens, WSU-NHL, WSU-NHL (hematological)): 448 nM
IC50 (cancer cell lines; NCI-H358M, NCIH358M (lung)): 19 nM
IC50 (cancer cell lines; PBMC, PBMC (hematological)): 3020 nM
IC50 (cancer cell lines; RD-ES, RDES (bone)): 10400 nM
metabolism (deamination) by human CDA (line graph) ([1]; 12 nM CDA, 50 and 200 uM substrate, 37° C., pH 7.5, figure legends FIG. 4-9): not metabolized
substrate conversion by CDA (Inactive) ([1]; rate of substrate conversion at 200 μM, could not be fitted): Inactive
SMILES: Nc1nc(=O)n([C@H]2C[C@H](O)[C@](CO)(CF)O2)cc1F [Cpd. No. 197, 4-amino-5-fluoro-1-((2R,4S,5R)-5-(fluoromethyl)-4-hydroxy-5-(hydroxymethyl)tetrahydrofuran-2-yl)pyrimidin-2(1H)-one]
cytotoxicity against a panel of cell lines (waterfall plot) (cancer cell lines; panel of cancer and non-cancer cell lines, figure legends FIG. 1-3): selectively cytotoxic in cancer cell lines with high DDR activity
